Converted amounts (≈) assume the structure as drawn. Structures can show the parent of a compound that is named as a salt. Where two headings read alike, the source gives them in different places.
How the values were obtained:
Experiment in all cases: Bacterial growth minimal inhibitory concentration, microdilution in cation-adjusted Mueller-Hinton Broth (CLSI M7-A7)
Assay type in all cases: cell-based
E. coli ATCC25922 = settings: for MIC: Escherichia coli
Procedure: (§1) Minimal Inhibitory Concentrations (MICs; mg/L) were determined in cation-adjusted Mueller-Hinton Broth by a microdilution method following the description given in “Methods for Dilution Antimicrobial Susceptibility Tests for Bacteria that Grow Aerobically”, Approved standard, 7th ed., Clinical and Laboratory Standards Institute (CLSI) Document M7-A7, Wayne, Pa., USA (2006).
(§2) All Example compounds were tested against several Gram-positive and Gram-negative bacteria. […] K pneumoniae A-651 is a multiply-resistant (in particular quinolone-resistant) strain, while E. coli ATCC25922 and P. aeruginosa ATCC27853 are quinolone-sensitive strains.

P. aeruginosa ATCC27853 = settings: for MIC: Pseudomonas aeruginosa
Procedure: as §1, §2

K. Pneumoniae A-651 = settings: for MIC: Klebsiella pneumoniae, read-out: MIC for K. Pneumoniae A-651
Procedure: as §1, §2

[1] = ATCC25922, quinolone-sensitive strain, read-out: MIC for E. coli ATCC25922
[2] = ATCC27853, quinolone-sensitive strain, read-out: MIC for P. aeruginosa ATCC27853
[3] = multiply-resistant (in particular quinolone-resistant) strain

Compound | MIC (E. coli ATCC25922; [1]) | MIC (P. aeruginosa ATCC27853; [2]) | MIC (K. Pneumoniae A-651; [3]) | also measured
CC(C)(N)C#CC#Cc1ccc2nc(CC[C@](C)(C(=O)NO)S(C)(=O)=O)sc2c1 [Example 6, (R)-4-(6-(5-amino-5-methylhexa-1,3-diyn-1-yl)benzo[d]thiazol-2-yl)-N-hydroxy-2-methyl-2-(methylsulfonyl)butanamide] | 0.25 µg/mL (≈ 0.577 µM) | 1 µg/mL (≈ 2.31 µM) | 1 µg/mL (≈ 2.31 µM) | –
C[C@@](CCc1nc2ccc(C#CC#C[C@H]3C[C@@H]3CO)cc2s1)(C(=O)NO)S(C)(=O)=O [Example 7, (R)-N-hydroxy-4-(6-(((1S,2S)-2-(hydroxymethyl)cyclopropyl)buta-1,3-diyn-1-yl)benzo[d]thiazol-2-yl)-2-methyl-2-(methylsulfonyl)butanamide] | ≤ 0.063 µg/mL | 0.5 µg/mL (≈ 1.12 µM) | 0.125 µg/mL (≈ 0.28 µM) | –
C[C@@](CCc1nc2ccc(C#CC#C[C@@]3(F)C[C@@H]3CO)cc2s1)(C(=O)NO)S(C)(=O)=O (relative stereo) [Example 23, (R)-4-(6-(((1R*,2R*)-1-fluoro-2-(hydroxymethyl)cyclopropyl)buta-1,3-diyn-1-yl)benzo[d]thiazol-2-yl)-N-hydroxy-2-methyl-2-(methylsulfonyl)butanamide] | ≤ 0.063 µg/mL | 0.5 µg/mL (≈ 1.08 µM) | 0.25 µg/mL (≈ 0.538 µM) | –
C[C@@](CCc1nc2ccc(C#CC#CC3CN(C(=O)CO)C3)cc2s1)(C(=O)NO)S(C)(=O)=O [Example 25, (R)-N-hydroxy-4-(6-((1-(2-hydroxyacetyl)azetidin-3-yl)buta-1,3-diyn-1-yl)benzo[d]thiazol-2-yl)-2-methyl-2-(methylsulfonyl)butanamide] | 0.5 µg/mL (≈ 1.02 µM) | 1 µg/mL (≈ 2.04 µM) | 1 µg/mL (≈ 2.04 µM) | –
C[C@@](CCc1nc2ccc(C#Cc3ccc(C4(CO)CC4)cc3)cc2s1)(C(=O)NO)S(C)(=O)=O [Example 11, (R)-N-hydroxy-4-(6-((4-(1-(hydroxymethyl)cyclopropyl)phenyl)ethynyl)benzo[d]thiazol-2-yl)-2-methyl-2-(methylsulfonyl)butanamide] | 0.125 µg/mL (≈ 0.251 µM) | 4 µg/mL (≈ 8.02 µM) | 0.5 µg/mL (≈ 1 µM) | –
COc1ccc(-c2ccc3nc(CCC(C)(C(=O)NO)S(C)(=O)=O)sc3c2)cc1 (racemic) [RE1, (RS)-N-hydroxy-4-(6-(4-methoxyphenyl)benzo[d]thiazol-2-yl)-2-methyl-2-(methylsulfonyl)butanamide] | 0.25 µg/mL (≈ 0.575 µM) | 16 µg/mL (≈ 36.8 µM) | 2 µg/mL (≈ 4.6 µM) | –
C[C@@](CCc1nc2ccc(C#CC#CC3CCN(C(=O)CO)CC3)cc2s1)(C(=O)NO)S(C)(=O)=O [Example 22, (R)-N-hydroxy-4-(6-((1-(2-hydroxyacetyl)piperidin-4-yl)buta-1,3-diyn-1-yl)benzo[d]thiazol-2-yl)-2-methyl-2-(methylsulfonyl)butanamide] | 0.5 µg/mL (≈ 0.966 µM) | 2 µg/mL (≈ 3.86 µM) | 1 µg/mL (≈ 1.93 µM) | –
COc1ccc(-c2ccc3nc(CC[C@](C)(C(=O)NO)S(C)(=O)=O)sc3c2)c(F)c1 [Example 2, (R)-4-(6-(2-fluoro-4-methoxyphenyl)benzo[d]thiazol-2-yl)-N-hydroxy-2-methyl-2-(methylsulfonyl)butanamide] | ≤ 0.063 µg/mL | 2 µg/mL (≈ 4.42 µM) | 0.25 µg/mL (≈ 0.552 µM) | –
C[C@@]1(C#CC#Cc2ccc3nc(CC[C@](C)(C(=O)NO)S(C)(=O)=O)sc3c2)C[C@H]1CO [Example 15, (R)-N-hydroxy-4-(6-(((1R,2R)-2-(hydroxymethyl)-1-methylcyclopropyl)buta-1,3-diyn-1-yl)benzo[d]thiazol-2-yl)-2-methyl-2-(methylsulfonyl)butanamide] | 0.125 µg/mL (≈ 0.271 µM) | 1 µg/mL (≈ 2.17 µM) | 0.5 µg/mL (≈ 1.09 µM) | –
C[C@@](CCc1nc2ccc(C#CC#CC3(O)COC3)cc2s1)(C(=O)NO)S(C)(=O)=O (single isomer, unassigned) [Example 1] | 0.25 µg/mL (≈ 0.557 µM) | 1 µg/mL (≈ 2.23 µM) | 0.25 µg/mL (≈ 0.557 µM) | –
C[C@@](CCc1nc2ccc(C#CC#C[C@]3(O)C[C@@H](CO)C3)cc2s1)(C(=O)NO)S(C)(=O)=O (relative stereo) [Example 21, (R)-N-hydroxy-4-(6-((cis-1-hydroxy-3-(hydroxymethyl)cyclobutyl)buta-1,3-diyn-1-yl)benzo[d]thiazol-2-yl)-2-methyl-2-(methylsulfonyl)butanamide] | – | – | – | MIC for E. coli ATCC25922 (E. coli ATCC25922; quinolone-sensitive strain): 1 mg/L; MIC for P. aeruginosa ATCC27853 (P. aeruginosa ATCC27853; quinolone-sensitive strain): 2 mg/L; MIC for K. Pneumoniae A-651 (K. Pneumoniae A-651; [3]): 2 mg/L
C[C@]1(CO)C[C@@H]1C#CC#Cc1ccc2nc(CC[C@](C)(C(=O)NO)S(C)(=O)=O)sc2c1 [Example 26, (R)-N-hydroxy-4-(6-(((1R,2S)-2-(hydroxymethyl)-2-methylcyclopropyl)buta-1,3-diyn-1-yl)benzo[d]thiazol-2-yl)-2-methyl-2-(methylsulfonyl)butanamide] | 0.063 µg/mL (≈ 0.137 µM) | 0.5 µg/mL (≈ 1.09 µM) | 0.125 µg/mL (≈ 0.271 µM) | –
C[C@@](CCc1nc2ccc(C#CC#C[C@@H]3C[C@@H](O)[C@@H](O)C3)cc2s1)(C(=O)NO)S(C)(=O)=O [Example 13, (R)-4-(6-(((1s,3R,4S)-3,4-dihydroxycyclopentyl)buta-1,3-diyn-1-yl)benzo[d]thiazol-2-yl)-N-hydroxy-2-methyl-2-(methylsulfonyl)butanamide] | – | – | – | MIC for E. coli ATCC25922 (E. coli ATCC25922; quinolone-sensitive strain): 0.25 mg/L; MIC for P. aeruginosa ATCC27853 (P. aeruginosa ATCC27853; quinolone-sensitive strain): 1 mg/L; MIC for K. Pneumoniae A-651 (K. Pneumoniae A-651; [3]): 0.5 mg/L
C[C@@](CCc1nc2ccc(C#CC#CCC3(O)COC3)cc2s1)(C(=O)NO)S(C)(=O)=O [Example 14, (R)-N-hydroxy-4-(6-(5-(3-hydroxyoxetan-3-yl)penta-1,3-diyn-1-yl)benzo[d]thiazol-2-yl)-2-methyl-2-(methylsulfonyl)butanamide] | 0.5 µg/mL (≈ 1.08 µM) | 1 µg/mL (≈ 2.16 µM) | 1 µg/mL (≈ 2.16 µM) | –
C[C@@](CCc1nc2ccc(C#CC#CC3(N)CC3)cc2s1)(C(=O)NO)S(C)(=O)=O [Example 10, (R)-4-(6-((1-aminocyclopropyl)buta-1,3-diyn-1-yl)benzo[d]thiazol-2-yl)-N-hydroxy-2-methyl-2-(methylsulfonyl)butanamide hydrochloride] | – | – | – | MIC (E. coli ATCC25922; ATCC25922, read-out: MIC for E. coli ATCC25922): 0.125 µg/mL; MIC (P. aeruginosa ATCC27853; ATCC27853, read-out: MIC for P. aeruginosa ATCC27853): 1 µg/mL; MIC (K. Pneumoniae A-651): 0.25 µg/mL
CC(C)(O)C#CC#Cc1ccc2nc(CC[C@](C)(C(=O)NO)S(C)(=O)=O)sc2c1 [Example 4, (R)-N-hydroxy-4-(6-(5-hydroxy-5-methylhexa-1,3-diyn-1-yl)benzo[d]thiazol-2-yl)-2-methyl-2-(methylsulfonyl)butanamide] | 0.5 µg/mL (≈ 1.15 µM) | 1 µg/mL (≈ 2.3 µM) | 0.5 µg/mL (≈ 1.15 µM) | –
CN(C)CC#CC#Cc1ccc2nc(CC[C@](C)(C(=O)NO)S(C)(=O)=O)sc2c1 [Example 17, (R)-4-(6-(5-(dimethylamino)penta-1,3-diyn-1-yl)benzo[d]thiazol-2-yl)-N-hydroxy-2-methyl-2-(methylsulfonyl)butanamide] | 0.125 µg/mL (≈ 0.288 µM) | 2 µg/mL (≈ 4.61 µM) | 0.25 µg/mL (≈ 0.577 µM) | –
CC(CCc1nc2ccc(C#Cc3ccc(CO)cc3)cc2s1)(C(=O)NO)S(C)(=O)=O (racemic) [RE2, (RS)-N-hydroxy-4-(6-((4-(hydroxymethyl)phenyl)ethynyl)benzo[d]thiazol-2-yl)-2-methyl-2-(methylsulfonyl)butanamide] | 0.125 µg/mL (≈ 0.273 µM) | 16 µg/mL (≈ 34.9 µM) | 0.5 µg/mL (≈ 1.09 µM) | –
C[C@@](CCc1nc2ccc(C#CC#CC3(O)CCOCC3)cc2s1)(C(=O)NO)S(C)(=O)=O [Example 18, (R)-N-hydroxy-4-(6-((4-hydroxytetrahydro-2H-pyran-4-yl)buta-1,3-diyn-1-yl)benzo[d]thiazol-2-yl)-2-methyl-2-(methylsulfonyl)butanamide] | 1 µg/mL (≈ 2.1 µM) | 2 µg/mL (≈ 4.2 µM) | 2 µg/mL (≈ 4.2 µM) | –
CC(CCc1nc2ccc(C#Cc3ccc(C4(N)COC4)cc3)cc2s1)(C(=O)NO)S(C)(=O)=O.Cc1ccc(S(=O)(=O)O)cc1 (racemic) [RE3, (RS)-4-(6-((4-(3-aminooxetan-3-yl)phenyl)ethynyl)-benzo[d]thiazol-2-yl)-N-hydroxy-2-methyl-2-(methylsulfonyl)butanamide 4-methyl-benzenesulfonate] | 4 µg/mL | 8 µg/mL | 1 µg/mL | –
C[C@@](CCc1nc2ccc(C#CC#CC3CCNCC3)cc2s1)(C(=O)NO)S(C)(=O)=O [Example 19, (R)-N-hydroxy-2-methyl-2-(methylsulfonyl)-4-(6-(piperidin-4-ylbuta-1,3-diyn-1-yl)benzo[d]thiazol-2-yl)butanamide] | 8 µg/mL (≈ 17.4 µM) | 4 µg/mL (≈ 8.7 µM) | 16 µg/mL (≈ 34.8 µM) | –
C[C@@](CCc1nc2ccc(C#CC#CC3(N)COC3)cc2s1)(C(=O)NO)S(C)(=O)=O [Example 9, (R)-4-(6-((3-aminooxetan-3-yl)buta-1,3-diyn-1-yl)benzo[d]thiazol-2-yl)-N-hydroxy-2-methyl-2-(methylsulfonyl)butanamide] | 1 µg/mL (≈ 2.23 µM) | 2 µg/mL (≈ 4.47 µM) | 2 µg/mL (≈ 4.47 µM) | –
C[C@@](CCc1nc2ccc(C#CC#CC3(CO)CCC3)cc2s1)(C(=O)NO)S(C)(=O)=O [Example 12, (R)-N-hydroxy-4-(6-((1-(hydroxymethyl)cyclobutyl)buta-1,3-diyn-1-yl)benzo[d]thiazol-2-yl)-2-methyl-2-(methylsulfonyl)butanamide] | 0.125 µg/mL (≈ 0.271 µM) | 2 µg/mL (≈ 4.34 µM) | 0.5 µg/mL (≈ 1.09 µM) | –
C[C@@](CCc1nc2ccc(C#CC#C[C@@H]3CC[C@@H](N)CO3)cc2s1)(C(=O)NO)S(C)(=O)=O [Example 16, (R)-4-(6-(((2S,5R)-5-aminotetrahydro-2H-pyran-2-yl)buta-1,3-diyn-1yl)benzo[d]thiazol-2-yl)-N-hydroxy-2-methyl-2-(methylsulfonyl)butanamide] | 4 µg/mL (≈ 8.41 µM) | 4 µg/mL (≈ 8.41 µM) | 8 µg/mL (≈ 16.8 µM) | –
